Laboratory results from US11708348B2, “Protease inhibitors for treatment of coronavirus infections” (The Scripps Research Institute, priority 2021, dated 2023).
Like-named read-outs stand apart in the source and are kept apart here.

Test system: SARS-CoV-2 strain USA-WA1/2020
Test: microbe, parasite or virus in culture
Format: cell-based
Conditions: Severe acute respiratory syndrome coronavirus 2, HeLa-ACE2, 24 h, read-out: EC50, uM (Hela)
[1] = HeLa-ACE2 cells, SARS-CoV-2 infection, 24 h
[2] = HeLa-ACE2 cells, SARS-CoV-2 infection, 24 h, class symbols

Row | Compound | EC50 [1] [µM] | EC50 [2] [µM] | also measured
1 | CC(C)C[C@H](NC(=O)C12CC(NC(=O)C(F)(F)F)(CO1)C2)C(=O)N[C@@H](C[C@@H]1CCNC1=O)C(=O)COC(F)(F)F [Compound 314, N-((S)-4-methyl-1-oxo-1-(((S)-3-oxo-1-((S)-2-oxopyrrolidin-3-yl)-4-(trifluoromethoxy)butan-2-yl)amino)pentan-2-yl)-4-(2,2,2-trifluoroacetamido)-2-oxabicyclo[2.1.1]-hexane-1-carboxamide] | – | – | EC50: 0.2 to 0.5 µM
2 | C=CCCC(=O)N1CC2(CC2)C[C@H]1C(=O)N[C@@H](C[C@@H]1CCNC1=O)C(=O)COC(F)(F)F [Compound 690, (S)-N-((S)-3-oxo-1-((S)-2-oxopyrrolidin-3-yl)-4-(trifluoromethoxy)butan-2-yl)-5-(pent-4-enoyl)-5-azaspiro[2.4]heptane-6-carboxamide] | 0.05 to 0.2 | – | –
3 | O=C(N[C@@H](CC1CCC1)C(=O)N[C@@H](C[C@@H]1CCNC1=O)C(=O)COC(F)(F)F)C(=O)NC12CC(F)(C1)C2 [Compound 565, N1-((S)-3-cyclobutyl-1-oxo-1-(((S)-3-oxo-1-((S)-2-oxopyrrolidin-3-yl)-4-(trifluoromethoxy)butan-2-yl)amino)propan-2-yl)-N2-(3-fluorobicyclo[1.1.1]-pentan-1-yl)oxalamide] | < 0.05 | – | –
4 | CC(C)(C(=O)N1CC2(CC2)C[C@H]1C(=O)N[C@@H](C[C@@H]1CCNC1=O)C(=O)COC(F)(F)F)c1ccccc1 [Compound 619, (S)-5-(2-methyl-2-phenylpropanoyl)-N-((S)-3-oxo-1-((S)-2-oxopyrrolidin-3-yl)-4-(trifluoromethoxy)butan-2-yl)-5-azaspiro[2.4]heptane-6-carboxamide] | < 0.05 | – | –
5 | COCc1ccccc1NC(=O)C(=O)N[C@@H](CC(C)C)C(=O)N[C@@H](C[C@@H]1CCNC1=O)C(=O)COC(F)(F)F [Compound 177, N1-(2-(methoxymethyl)phenyl)-N2-((S)-4-methyl-1-oxo-1-(((S)-3-oxo-1-((S)-2-oxopyrrolidin-3-yl)-4-(trifluoromethoxy)butan-2-yl)amino)pentan-2-yl)oxalamide] | – | < 0.05 | –
6 | C[C@H](C(=O)N1CC2(CC2)C[C@H]1C(=O)N[C@@H](C[C@@H]1CCNC1=O)C(=O)COC(F)(F)F)c1ccccc1 [Compound 628, (S)-N-((S)-3-oxo-1-((S)-2-oxopyrrolidin-3-yl)-4-(trifluoromethoxy)butan-2-yl)-5-((S)-2-phenylpropanoyl)-5-azaspiro[2.4]heptane-6-carboxamide] | 0.05 to 0.2 | – | –
7 | COC[C@H](Nc1ccccc1F)C(=O)N[C@@H](CC(C)C)C(=O)N[C@@H](C[C@@H]1CCNC1=O)C(=O)COC(F)(F)F [Compound 236, (S)-2-((S)-2-((2-fluorophenyl)amino)-3-methoxypropanamido)-4-methyl-N-((S)-3-oxo-1-((S)-2-oxopyrrolidin-3-yl)-4-(trifluoromethoxy)butan-2-yl)pentanamide] | – | < 0.05 | –
8 | CC(C)C[C@H](NC(=O)C(=O)NC1COC1)C(=O)N[C@@H](C[C@@H]1CCNC1=O)C(=O)COC(F)(F)F [Compound 244, N1-((S)-4-methyl-1-oxo-1-(((S)-3-oxo-1-((S)-2-oxopyrrolidin-3-yl)-4-(trifluoromethoxy)butan-2-yl)amino)pentan-2-yl)-N2-(oxetan-3-yl)oxalamide] | – | 0.05 to 0.2 | –
9 | CC(C)(C)NC(=O)O[C@@H](C(=O)N1CC2(CC2)C[C@H]1C(=O)N[C@@H](C[C@@H]1CCNC1=O)C(=O)COC(F)(F)F)C(C)(C)C [Compound 327, (R)-3,3-dimethyl-1-oxo-1-((S)-6-(((S)-3-oxo-1-((S)-2-oxopyrrolidin-3-yl)-4-(trifluoromethoxy)butan-2-yl)carbamoyl)-5-azaspiro[2.4]heptan-5-yl)butan-2-yl tert-butylcarbamate] | – | 0.5 to 1 | –
10 | CC(C)C[C@H](NC(=O)C(=O)NC1CCCCC1)C(=O)N[C@@H](C[C@@H]1CCNC1=O)C(=O)COC(F)(F)F [Compound 163, N1-cyclohexyl-N2-((S)-4-methyl-1-oxo-1-(((S)-3-oxo-1-((S)-2-oxopyrrolidin-3-yl)-4-(trifluoromethoxy)butan-2-yl)amino)pentan-2-yl)oxalamide] | – | < 0.05 | –
11 | CC(C)(C)C[C@H](NC(=O)C(=O)NC1CC(F)(F)C1)C(=O)N[C@@H](C[C@@H]1CCNC1=O)C(=O)COC(F)(F)F [Compound 179, Nl-(3,3-difluorocyclobutyl)-N2-((S)-4,4-dimethyl-1-oxo-1-(((S)-3-oxo-1-((S)-2-oxopyrrolidin-3-yl)-4-(trifluoromethoxy)butan-2-yl)amino)pentan-2-yl)oxalamide] | – | < 0.05 | –
12 | CNC(=O)C(=O)N1CC2(CC2)C[C@H]1C(=O)N[C@@H](C[C@@H]1CCNC1=O)C(=O)COC(F)(F)F [Compound 676, (S)-5-(2-(methylamino)-2-oxoacetyl)-N-((S)-3-oxo-1-((S)-2-oxopyrrolidin-3-yl)-4-(trifluoromethoxy)butan-2-yl)-5-azaspiro[2.4]heptane-6-carboxamide] | 0.05 to 0.2 | – | –
13 | CC(C)(C)[C@H](NC(=O)C(F)(F)F)C(=O)N1C[C@H]2[C@@H]([C@H]1C(=O)N[C@@H](C[C@@H]1CCNC1=O)C(=O)COC(F)(F)F)C2(C)C [Compound 264, (1R,2S,5S)-3-((S)-3,3-dimethyl-2-(2,2,2-trifluoroacetamido)butanoyl)-6,6-dimethyl-N—((S)-3-oxo-1-((S)-2-oxopyrrolidin-3-yl)-4-(trifluoromethoxy)butan-2-yl)-3-azabicyclo[3.1.0]hexane-2-carboxamide] | – | – | EC50: < 0.05 µM
14 | COC(CC(C)C)C(=O)N1CC2(CC2)C[C@H]1C(=O)N[C@@H](C[C@@H]1CCNC1=O)C(=O)COC(F)(F)F (stereo partly drawn) [Compound 338, (6S)-5-(2-methoxy-4-methylpentanoyl)-N-((S)-3-oxo-1-((S)-2-oxopyrrolidin-3-yl)-4-(trifluoromethoxy)butan-2-yl)-5-azaspiro[2.4]heptane-6-carboxamide] | – | < 0.05 | –
15 | CC(C)C[C@H](NC(=O)C(=O)Nc1ccccc1F)C(=O)N[C@@H](C[C@@H]1CCCNC1=O)C(=O)COc1c(F)c(F)cc(F)c1F [Compound 129, N1-(2-fluorophenyl)-N2-((S)-4-methyl-1-oxo-1-(((S)-3-oxo-1-((S)-2-oxopiperidin-3-yl)-4-(2,3,5,6-tetrafluorophenoxy)butan-2-yl)amino)pentan-2-yl)oxalamide] | – | < 0.05 | –
16 | CC(C)C[C@H](NC(=O)c1csc(C(F)(F)F)n1)C(=O)N[C@@H](CC1CCNC1=O)C(=O)COC(F)(F)F (stereo partly drawn) [Compound 277, N-((2S)-4-methyl-1-oxo-1-(((2S)-3-oxo-1-(2-oxopyrrolidin-3-yl)-4-(trifluoromethoxy)butan-2-yl)amino)pentan-2-yl)-2-(trifluoromethyl)-thiazole-4-carboxamide] | – | < 0.05 | –
17 | CC[C@@H](O)C(=O)N1C[C@H]2[C@@H]([C@H]1C(=O)N[C@@H](C[C@@H]1CCNC1=O)C(=O)COC(F)(F)F)C2(C)C [Compound 368, (1R,2S,5S)-3-((R)-2-hydroxybutanoyl)-6,6-dimethyl-N-((S)-3-oxo-1-((S)-2-oxopyrrolidin-3-yl)-4-(trifluoromethoxy)butan-2-yl)-3-azabicyclo[3.1.0]= hexane-2-carboxamide] | – | 0.05 to 0.2 | –
18 | O=C1NCC[C@H]1C[C@H](NC(=O)[C@@H]1CC2(CC2)CN1C(=O)C12CC(C(F)F)(CO1)C2)C(=O)COC(F)(F)F [Compound 320, (S)-5-(4-(difluoromethyl)-2-oxabicyclo[2.1.1]-hexane-1-carbonyl)-N-((S)-3-oxo-1-((S)-2-oxopyrrolidin-3-yl)-4-(trifluoromethoxy)butan-2-yl)-5-azaspiro[2.4]-heptane-6-carboxamide] | – | 0.2 to 0.5 | –
19 | O=C1NCC[C@H]1C[C@H](NC(=O)[C@@H]1[C@H]2CCC[C@H]2CN1C(=O)c1cc(C(F)F)on1)C(=O)COC(F)(F)F [Compound 500, (1S,3aR,6aS)-2-(5-(difluoromethyl)-isoxazole-3-carbonyl)-N-((S)-3-oxo-1-((S)-2-oxopyrrolidin-3-yl)-4-(trifluoromethoxy)butan-2-yl)octahydrocyclo-penta[c]pyrrole-1-carboxamide] | < 0.05 | – | –
20 | CC(C)(C)[C@H](O)C(=O)N1CC2(CC2)C[C@H]1C(=O)N[C@@H](C[C@@H]1CCNC1=O)C(=O)COC(F)(F)F [Compound 344, (S)-5-((S)-2-hydroxy-3,3-dimethylbutanoyl)-N-((S)-3-oxo-1-((S)-2-oxopyrrolidin-3-yl)-4-(trifluoromethoxy)butan-2-yl)-5-azaspiro[2.4]heptane-6-carboxamide] | – | < 0.05 | –
21 | CC1(C)[C@@H]2[C@@H](C(=O)N[C@@H](C[C@@H]3CCNC3=O)C(=O)COC(F)(F)F)N(C(=O)c3csc(C(F)(F)F)n3)C[C@@H]21 [Compound 468, (1R,2S,5S)-6,6-dimethyl-N-((S)-3-oxo-1-((S)-2-oxopyrrolidin-3-yl)-4-(trifluoromethoxy)butan-2-yl)-3-(2-(trifluoromethyl)-thiazole-4-carbonyl)-3-azabicyclo[3.1.0]-hexane-2-carboxamide] | 0.05 to 0.2 | – | –
22 | O=C(NC1CC(F)(F)C1)C(=O)N[C@@H](CC1CC1)C(=O)N[C@@H](C[C@@H]1CCNC1=O)C(=O)COC(F)(F)F [Compound 176, N1-((S)-3-cyclopropyl-1-oxo-1-(((S)-3-oxo-1-((S)-2-oxopyrrolidin-3-yl)-4-(trifluoromethoxy)butan-2-yl)amino)propan-2-yl)-N2-(3,3-difluorocyclobutyl)-oxalamide] | – | < 0.05 | –
23 | O=C(N[C@@H](CC1CC1)C(=O)N[C@@H](C[C@@H]1CCNC1=O)C(=O)COC(F)(F)F)c1nc2ccccc2o1 [Compound 201, N-((S)-3-cyclopropyl-1-oxo-1-(((S)-3-oxo-1-((S)-2-oxopyrrolidin-3-yl)-4-(trifluoromethoxy)butan-2-yl)amino)propan-2-yl)benzo[d]oxazole-2-carboxamide] | – | < 0.05 | –
